Experimental data reported in ChEMBL document CHEMBL4507283, “Data for DCP probe BI-1935” (2021).

Legend:
[1] = molecular target: Type-1 angiotensin II receptor (Oryctolagus cuniculus) (UniProt P34976); experiment: AT1 Eurofins-Panlabs selectivity data (BI); details: Homo sapiens; Compound concentration 10.0 uM
[2] = molecular target: Cannabinoid receptor 1 (Homo sapiens) (UniProt P21554); experiment: CB1/H Eurofins-Panlabs selectivity data (BI); details: Compound concentration 10.0 uM
[3] = molecular target: D(3) dopamine receptor (Homo sapiens) (UniProt P35462); experiment: D3/HU Eurofins-Panlabs selectivity data (BI); details: Compound concentration 10.0 uM
[4] = molecular target: Nitric oxide synthase 3 (Bos taurus) (UniProt P29473); experiment: ENOS_MDS Eurofins-Panlabs selectivity data (BI); details: Compound concentration 10.0 uM
[5] = molecular target: Muscarinic acetylcholine receptor (Rattus norvegicus) (UniProt P08482+P08483+P08485+P08911+P10980); experiment: MUSCARIN/NS Eurofins-Panlabs selectivity data (BI); format: protein assay; details: Compound concentration 10.0 uM
[6] = molecular target: Renin (Homo sapiens) (UniProt P00797); experiment: RENIN (HU) Eurofins-Panlabs selectivity data (BI); details: Compound concentration 10.0 uM
[7] = test system: Tyrosine-protein kinase ABL1 (Homo sapiens), P00519 [F317L]; details: Compound concentration 1000.0 nM
[8] = test system: Tyrosine-protein kinase ABL1 (Homo sapiens), P00519 [M351T]; details: Compound concentration 1000.0 nM
[9] = molecular target: Tyrosine-protein kinase ABL1 (Homo sapiens) (UniProt P00519); details: Compound concentration 1000.0 nM
[10] = test system: ALK tyrosine kinase receptor (Homo sapiens), Q9UM73 [C1156Y]; details: Compound concentration 1000.0 nM
[11] = molecular target: Calcium/calmodulin-dependent protein kinase type II subunit alpha (Homo sapiens) (UniProt Q9UQM7); details: Compound concentration 1000.0 nM
[12] = molecular target: Cyclin-dependent kinase 5 (Homo sapiens) (UniProt Q00535); details: Compound concentration 1000.0 nM
[13] = molecular target: Cyclin-dependent kinase-like 2 (Homo sapiens) (UniProt Q92772); details: Compound concentration 1000.0 nM
[14] = molecular target: Cyclin-dependent kinase-like 3 (Homo sapiens) (UniProt Q8IVW4); details: Compound concentration 1000.0 nM
[15] = molecular target: Ephrin type-A receptor 1 (Homo sapiens) (UniProt P21709); details: Compound concentration 1000.0 nM
[16] = molecular target: Ephrin type-A receptor 4 (Homo sapiens) (UniProt P54764); details: Compound concentration 1000.0 nM
[17] = molecular target: Ephrin type-B receptor 3 (Homo sapiens) (UniProt P54753); details: Compound concentration 1000.0 nM
[18] = molecular target: Receptor tyrosine-protein kinase erbB-3 (Homo sapiens) (UniProt P21860); details: Compound concentration 1000.0 nM
[19] = molecular target: Mitogen-activated protein kinase 3 (Homo sapiens) (UniProt P27361); details: Compound concentration 1000.0 nM
[20] = test system: Receptor-type tyrosine-protein kinase FLT3 (Homo sapiens), P36888 [UNDEFINED MUTATION]; details: Compound concentration 1000.0 nM
[21] = molecular target: Beta-adrenergic receptor kinase 1 (Homo sapiens) (UniProt P25098); details: Compound concentration 1000.0 nM
[22] = molecular target: Insulin receptor (Homo sapiens) (UniProt P06213); details: Compound concentration 1000.0 nM
[23] = molecular target: Tyrosine-protein kinase Lck (Homo sapiens) (UniProt P06239); details: Compound concentration 1000.0 nM
[24] = molecular target: LIM domain kinase 2 (Homo sapiens) (UniProt P53671); details: Compound concentration 1000.0 nM
[25] = molecular target: Misshapen-like kinase 1 (Homo sapiens) (UniProt Q8N4C8); details: Compound concentration 1000.0 nM
[26] = molecular target: Serine/threonine-protein kinase MRCK alpha (Homo sapiens) (UniProt Q5VT25); details: Compound concentration 1000.0 nM
[27] = molecular target: Serine/threonine-protein kinase NIM1 (Homo sapiens) (UniProt Q8IY84); details: Compound concentration 1000.0 nM
[28] = molecular target: Serine/threonine-protein kinase PAK 4 (Homo sapiens) (UniProt O96013); details: Compound concentration 1000.0 nM
[29] = test system: Phosphatidylinositol 4,5-bisphosphate 3-kinase catalytic subunit alpha isoform (Homo sapiens), P42336 [H1047L]; details: Compound concentration 1000.0 nM
[30] = molecular target: Serine/threonine-protein kinase PLK1 (Homo sapiens) (UniProt P53350); details: Compound concentration 1000.0 nM
[31] = molecular target: Protein kinase C eta type (Homo sapiens) (UniProt P24723); details: Compound concentration 1000.0 nM
[32] = test system: Proto-oncogene tyrosine-protein kinase receptor Ret (Homo sapiens), P07949 [M918T]; details: Compound concentration 1000.0 nM
[33] = test system: Proto-oncogene tyrosine-protein kinase receptor Ret (Homo sapiens), P07949 [V804M]; details: Compound concentration 1000.0 nM
[34] = molecular target: Rho-associated protein kinase 1 (Homo sapiens) (UniProt Q13464); details: Compound concentration 1000.0 nM
[35] = molecular target: Ribosomal protein S6 kinase alpha-1 (Homo sapiens) (UniProt Q15418); details: Compound concentration 1000.0 nM
[36] = molecular target: Serine/threonine-protein kinase 16 (Homo sapiens) (UniProt O75716); details: Compound concentration 1000.0 nM
[37] = molecular target: Serine/threonine-protein kinase 35 (Homo sapiens) (UniProt Q8TDR2); details: Compound concentration 1000.0 nM
[38] = molecular target: High affinity nerve growth factor receptor (Homo sapiens) (UniProt P04629); details: Compound concentration 1000.0 nM
[39] = molecular target: BDNF/NT-3 growth factors receptor (Homo sapiens) (UniProt Q16620); details: Compound concentration 1000.0 nM
[40] = molecular target: Mitogen-activated protein kinase kinase kinase 19 (Homo sapiens) (UniProt Q56UN5); details: Compound concentration 1000.0 nM
[41] = molecular target: 5-hydroxytryptamine receptor 1B (Homo sapiens) (UniProt P28222); details: Compound concentration 10.0 uM
[42] = molecular target: D(1A) dopamine receptor (Homo sapiens) (UniProt P21728); details: Compound concentration 10.0 uM
[43] = molecular target: Histamine H4 receptor (Homo sapiens) (UniProt Q9H3N8); details: Compound concentration 10.0 uM

Chain of Phosphatidylinositol 4,5-bisphosphate 3-kinase catalytic subunit alpha isoform (Homo sapiens), P42336 [H1047L] (P42336 whole entry H1047L, canonical isoform): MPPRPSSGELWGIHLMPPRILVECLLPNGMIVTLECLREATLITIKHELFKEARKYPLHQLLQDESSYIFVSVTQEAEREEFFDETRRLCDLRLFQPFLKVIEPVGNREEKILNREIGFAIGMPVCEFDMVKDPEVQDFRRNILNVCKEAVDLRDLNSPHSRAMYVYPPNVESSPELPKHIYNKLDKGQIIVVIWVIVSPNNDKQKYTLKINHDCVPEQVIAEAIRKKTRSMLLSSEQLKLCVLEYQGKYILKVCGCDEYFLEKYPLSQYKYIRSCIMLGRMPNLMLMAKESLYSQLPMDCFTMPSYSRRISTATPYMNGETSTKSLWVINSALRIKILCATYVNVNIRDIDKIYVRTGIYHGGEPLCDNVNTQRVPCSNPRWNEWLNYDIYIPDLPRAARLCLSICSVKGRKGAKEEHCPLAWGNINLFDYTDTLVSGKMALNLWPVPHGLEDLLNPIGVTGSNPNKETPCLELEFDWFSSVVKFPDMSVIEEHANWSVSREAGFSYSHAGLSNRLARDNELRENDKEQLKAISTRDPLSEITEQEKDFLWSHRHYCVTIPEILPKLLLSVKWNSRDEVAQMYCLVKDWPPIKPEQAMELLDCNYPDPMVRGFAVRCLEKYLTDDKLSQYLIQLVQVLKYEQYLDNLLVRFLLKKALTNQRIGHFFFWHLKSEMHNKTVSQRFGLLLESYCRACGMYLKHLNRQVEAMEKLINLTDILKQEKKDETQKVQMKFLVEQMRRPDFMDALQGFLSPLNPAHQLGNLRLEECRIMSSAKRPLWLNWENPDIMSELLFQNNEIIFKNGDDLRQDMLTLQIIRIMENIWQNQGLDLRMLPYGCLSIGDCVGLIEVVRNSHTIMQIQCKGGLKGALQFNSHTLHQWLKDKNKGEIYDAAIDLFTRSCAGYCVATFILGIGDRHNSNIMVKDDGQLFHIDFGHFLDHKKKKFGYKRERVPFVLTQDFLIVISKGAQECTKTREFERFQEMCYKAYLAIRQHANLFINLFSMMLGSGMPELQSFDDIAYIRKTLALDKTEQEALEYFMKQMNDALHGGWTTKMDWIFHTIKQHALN
Chain of BDNF/NT-3 growth factors receptor (Homo sapiens) (Q16620 32-822 limits assumed): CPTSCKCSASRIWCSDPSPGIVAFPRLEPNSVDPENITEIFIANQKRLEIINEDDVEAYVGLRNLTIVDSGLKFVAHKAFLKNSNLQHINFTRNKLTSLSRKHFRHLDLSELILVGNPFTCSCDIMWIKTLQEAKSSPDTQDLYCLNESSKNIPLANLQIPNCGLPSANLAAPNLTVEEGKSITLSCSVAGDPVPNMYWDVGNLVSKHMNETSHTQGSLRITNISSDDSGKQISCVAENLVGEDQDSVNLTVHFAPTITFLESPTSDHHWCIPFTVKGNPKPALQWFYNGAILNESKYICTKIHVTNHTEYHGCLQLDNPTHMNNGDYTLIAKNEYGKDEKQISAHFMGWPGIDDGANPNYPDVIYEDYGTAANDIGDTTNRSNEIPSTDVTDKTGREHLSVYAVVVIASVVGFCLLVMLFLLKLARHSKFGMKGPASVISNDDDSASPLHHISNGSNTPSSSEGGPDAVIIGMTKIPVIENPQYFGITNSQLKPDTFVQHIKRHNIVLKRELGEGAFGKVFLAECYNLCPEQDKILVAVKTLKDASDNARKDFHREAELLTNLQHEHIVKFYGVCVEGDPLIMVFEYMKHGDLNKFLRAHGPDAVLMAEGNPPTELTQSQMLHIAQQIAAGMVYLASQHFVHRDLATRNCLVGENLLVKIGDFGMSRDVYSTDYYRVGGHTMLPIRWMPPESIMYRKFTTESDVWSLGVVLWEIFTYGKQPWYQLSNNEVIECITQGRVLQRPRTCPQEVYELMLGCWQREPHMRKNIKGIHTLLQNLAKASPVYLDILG
Chain of Receptor tyrosine-protein kinase erbB-3 (Homo sapiens) (P21860 whole entry): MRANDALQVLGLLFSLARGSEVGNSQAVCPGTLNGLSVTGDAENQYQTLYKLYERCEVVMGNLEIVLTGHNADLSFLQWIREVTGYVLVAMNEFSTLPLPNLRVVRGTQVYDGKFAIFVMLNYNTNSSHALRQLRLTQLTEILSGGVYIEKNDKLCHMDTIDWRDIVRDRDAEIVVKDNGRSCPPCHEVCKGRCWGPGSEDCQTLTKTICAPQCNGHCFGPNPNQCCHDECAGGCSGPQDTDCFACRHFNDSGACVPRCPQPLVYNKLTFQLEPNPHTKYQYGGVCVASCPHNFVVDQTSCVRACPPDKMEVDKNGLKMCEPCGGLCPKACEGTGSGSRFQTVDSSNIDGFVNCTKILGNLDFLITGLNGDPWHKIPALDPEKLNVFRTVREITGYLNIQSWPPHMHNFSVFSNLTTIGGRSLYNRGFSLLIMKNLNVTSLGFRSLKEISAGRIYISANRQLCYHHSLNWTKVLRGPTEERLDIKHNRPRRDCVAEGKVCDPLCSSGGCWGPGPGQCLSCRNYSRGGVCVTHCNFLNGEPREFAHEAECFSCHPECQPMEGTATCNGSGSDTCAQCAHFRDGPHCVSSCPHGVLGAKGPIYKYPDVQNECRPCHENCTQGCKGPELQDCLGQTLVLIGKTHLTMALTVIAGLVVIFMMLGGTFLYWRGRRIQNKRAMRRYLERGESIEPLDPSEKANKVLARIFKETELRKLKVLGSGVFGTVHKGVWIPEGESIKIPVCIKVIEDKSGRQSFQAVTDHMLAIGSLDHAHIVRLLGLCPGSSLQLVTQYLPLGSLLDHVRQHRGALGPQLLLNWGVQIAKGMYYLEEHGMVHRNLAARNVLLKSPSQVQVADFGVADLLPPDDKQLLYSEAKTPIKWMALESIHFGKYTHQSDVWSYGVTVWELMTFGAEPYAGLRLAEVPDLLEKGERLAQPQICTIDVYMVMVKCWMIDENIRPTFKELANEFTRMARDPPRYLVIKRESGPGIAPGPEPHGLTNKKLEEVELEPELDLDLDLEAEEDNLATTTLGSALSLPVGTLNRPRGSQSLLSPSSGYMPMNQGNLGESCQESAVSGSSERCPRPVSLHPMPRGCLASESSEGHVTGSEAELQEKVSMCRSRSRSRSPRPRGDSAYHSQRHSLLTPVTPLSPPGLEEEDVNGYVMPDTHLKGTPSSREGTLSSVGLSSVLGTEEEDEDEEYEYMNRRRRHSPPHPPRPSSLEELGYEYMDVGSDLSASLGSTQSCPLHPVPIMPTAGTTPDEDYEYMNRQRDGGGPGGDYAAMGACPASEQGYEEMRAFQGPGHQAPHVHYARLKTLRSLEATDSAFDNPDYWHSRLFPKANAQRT
Chain of D(3) dopamine receptor (Homo sapiens) (P35462 whole entry): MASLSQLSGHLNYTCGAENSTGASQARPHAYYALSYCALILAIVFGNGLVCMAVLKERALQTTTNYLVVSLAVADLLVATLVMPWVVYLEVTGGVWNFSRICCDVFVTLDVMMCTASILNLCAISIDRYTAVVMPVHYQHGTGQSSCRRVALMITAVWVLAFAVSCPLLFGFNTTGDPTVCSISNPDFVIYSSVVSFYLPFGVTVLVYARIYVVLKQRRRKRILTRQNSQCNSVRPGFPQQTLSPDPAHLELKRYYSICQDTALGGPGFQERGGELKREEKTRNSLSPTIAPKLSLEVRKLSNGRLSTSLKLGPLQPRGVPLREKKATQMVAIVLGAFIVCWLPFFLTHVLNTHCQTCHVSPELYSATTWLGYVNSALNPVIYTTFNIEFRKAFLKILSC
Chain of 5-hydroxytryptamine receptor 1B (Homo sapiens) (P28222 whole entry): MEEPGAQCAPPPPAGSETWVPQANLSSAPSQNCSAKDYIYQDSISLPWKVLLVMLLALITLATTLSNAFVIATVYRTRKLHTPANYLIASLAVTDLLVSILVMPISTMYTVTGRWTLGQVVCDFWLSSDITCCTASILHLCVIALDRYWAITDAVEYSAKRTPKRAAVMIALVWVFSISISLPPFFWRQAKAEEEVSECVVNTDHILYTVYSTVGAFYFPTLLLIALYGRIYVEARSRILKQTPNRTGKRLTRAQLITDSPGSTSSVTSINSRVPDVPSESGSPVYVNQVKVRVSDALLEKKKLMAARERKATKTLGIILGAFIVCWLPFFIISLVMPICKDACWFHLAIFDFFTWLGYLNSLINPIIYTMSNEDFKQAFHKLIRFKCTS
Chain of Proto-oncogene tyrosine-protein kinase receptor Ret (Homo sapiens), P07949 [V804M] (P07949 whole entry V804M): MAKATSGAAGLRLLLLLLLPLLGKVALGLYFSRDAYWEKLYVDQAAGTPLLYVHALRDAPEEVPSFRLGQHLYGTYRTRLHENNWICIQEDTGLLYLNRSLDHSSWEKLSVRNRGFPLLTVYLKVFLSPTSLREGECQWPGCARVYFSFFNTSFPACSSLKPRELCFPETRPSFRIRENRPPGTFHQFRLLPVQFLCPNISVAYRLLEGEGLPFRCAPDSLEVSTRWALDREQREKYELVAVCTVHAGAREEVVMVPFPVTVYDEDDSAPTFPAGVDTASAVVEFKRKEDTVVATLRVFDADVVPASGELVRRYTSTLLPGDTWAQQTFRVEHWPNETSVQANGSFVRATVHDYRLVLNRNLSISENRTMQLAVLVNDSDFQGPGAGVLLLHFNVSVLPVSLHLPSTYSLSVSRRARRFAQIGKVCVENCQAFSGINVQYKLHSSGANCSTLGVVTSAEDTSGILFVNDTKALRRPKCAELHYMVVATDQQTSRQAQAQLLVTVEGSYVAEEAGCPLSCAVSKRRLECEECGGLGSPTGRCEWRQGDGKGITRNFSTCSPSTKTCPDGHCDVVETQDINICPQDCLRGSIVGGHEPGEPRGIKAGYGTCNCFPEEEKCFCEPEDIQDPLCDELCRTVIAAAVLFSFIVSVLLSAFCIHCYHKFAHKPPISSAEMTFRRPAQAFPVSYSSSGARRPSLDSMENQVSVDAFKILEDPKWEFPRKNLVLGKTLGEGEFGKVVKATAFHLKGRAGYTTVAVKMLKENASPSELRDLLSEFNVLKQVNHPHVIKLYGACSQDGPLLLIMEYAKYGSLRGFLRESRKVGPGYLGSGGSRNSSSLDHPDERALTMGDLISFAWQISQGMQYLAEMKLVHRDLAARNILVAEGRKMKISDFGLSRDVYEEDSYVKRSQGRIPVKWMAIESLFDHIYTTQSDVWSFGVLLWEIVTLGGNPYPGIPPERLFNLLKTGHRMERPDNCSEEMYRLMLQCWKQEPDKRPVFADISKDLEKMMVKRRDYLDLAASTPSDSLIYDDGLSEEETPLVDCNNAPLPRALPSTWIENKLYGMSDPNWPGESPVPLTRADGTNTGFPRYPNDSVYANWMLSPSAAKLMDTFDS

CCOCCn1cc(C(=O)Nc2ccc(-n3nc(-c4cccnc4)cc3C(F)(F)F)cn2)ccc1=O [BI 1935]
inactive: residual activity [1] 93% | residual activity [2] 81% | residual activity [3] 110% | residual activity [4] 111% | residual activity [5] 112% | residual activity [6] 94% | residual activity [7] 79% | residual activity [8] 100% | residual activity [9] 94% | residual activity [10] 100% | residual activity [11] 93% | residual activity [12] 100% | residual activity [13] 100% | residual activity [14] 84% | residual activity [15] 82% | residual activity [16] 91% | residual activity [17] 89% | residual activity [18] 87% | residual activity [19] 100% | residual activity [20] 79% | residual activity [21] 75% | residual activity [22] 98% | residual activity [23] 100% | residual activity [24] 100% | residual activity [25] 89% | residual activity [26] 100% | residual activity [27] 100% | residual activity [28] 100% | residual activity [29] 93% | residual activity [30] 100% | residual activity [31] 100% | residual activity [32] 91% | residual activity [33] 100% | residual activity [34] 74% | residual activity [35] 99% | residual activity [36] 92% | residual activity [37] 94% | residual activity [38] 100% | residual activity [39] 100% | residual activity [40] 75% | inhibition [41] 18.8% | inhibition [42] -7.31% | inhibition [43] 48.6%
